Experimental data reported in patent US12582672B2, “Vanadium compositions and methods for treatment of cancer” (THE BROAD INSTITUTE, INC., priority 2018, dated 2026).
Entries after “also recorded” stand apart in the source; their conditions may differ.

Assays:
[1] = tested on: 578 cancer cell lines; test: PRISM multiplexed cellular viability assay; assay type: cell-based; settings: for prediction of cell line sensitivity by SLC26A2 expression: more than 4,000 compounds profiled against 578 cancer cell lines
Description: Parental cell lines were obtained from the Cancer Cell Line Encyclopedia (CCLE) project (1). PRISM cell line barcoding, pooling, and screening was performed as previously described with several improvements to the original method (2). First, the lentiviral vector was modified to encode the unique barcode identifier at the end of the puromycin resistance gene. This enables barcodes to be detected using a variant of the mRNA capture and Luminex detection method developed for the L1000 gene expression assay (3). Second, a set of ten inert barcodes were spiked-in to each well of each plate after cell lysis to control for variation in PCR amplification as detailed below.
Luminex technology produced .Ixb files containing data for each Luminex bead observed during detection. These .Ixb files were processed to compute Median Fluorescence Intensity (MFI) values, calculated as the median of the values obtained for all beads corresponding to a single PRISM barcode.
MFI values were log-transformed (logMFI) and used to perform basic quality control. To detect probable screening artifacts, logMFI values were centered to the median logMFI for each cell line on each plate in order to put the measurements from each cell line on the same scale. For each well on each plate, the median of these centered values was then standardized according to the global median and global MAD across all plate wells in the same position. Data from wells with a standardized score of greater than 5 or less than −5 were excluded from all further processing steps.
For each cell line on each plate, the distribution of MFI values observed for the DMSO-treated negative controls was compared to that of the positive controls using a robust form of the Strictly Standardized Mean Difference (SSMD*)′. Specifically, SSMD* was calculated as: […]
Data corresponding to SSMD values less than 2 were removed before calculating cell viability.
The data in the instant disclosure were produced according to two different screening protocols. In the PR500 protocol, ten inert barcodes were spiked-in to each well of each plate after cell lysis. For data produced using the PR500 protocol, normalized MFI (nMFI) values were computed by taking the ratio of each MFI value against the median of the inert barcodes within each well. For data produced before the PR500 protocol was introduced, nMFI values were set equal to MFI values.
Cell viability was calculated as the ratio of nMFI to the median of the nMFI from the DMSO-treated negative controls for each cell line on each plate. Batch effects produced from variable detection and assay conditions were then removed using ComBat (4). The final viability values were calculated as the median of the batch-corrected cell viabilities from biological replicates for each cell line, compound and dose.
Measures of dose response were obtained by fitting 3-parameter logistic curves to viability values for each compound and cell line using the R package ‘drc’. Following the practice of Smirnov and Safikhani (5), viability was truncated at 1.0 and fit as a function of drug concentration according to:
[formula] where all concentrations are in the natural logarithm scale. IC50 values were defined as the concentration c at which V(c)=0.5, given by the formula:
[formula] The Area Under the dose response Curve (AUC) was calculated using the normalized integral: […]
The formulation above puts AUC values on a scale between 0 and 1, where lower AUC values indicate increased sensitivity to the treatment.

[2] = diabetic rats; cited from earlier work
[3] = tested on: SLC26A2 knockouts in A375, OVISE, and A2058 cell lines; test: CellTiter-Glo cellular viability assay in CRISPR-Cas9 SLC26A2 knockout cell lines; assay type: cell-based; settings: FIGS. 7A-7C
Source text: XP003, XP023, psPAX, and pMD2.G vectors were acquired from the Broad Genetic Perturbation Platform (GPP). Oligos for sgRNAs designs were generated using Broad GPP sgRNA guide generator resource (on the World Wide Web at (www)broad institute.org/gpp/db/analvsis-tools/sgrna-design) and the respective oligos were synthesized by Integrated DNA Technologies. In order to clone the sgRNAs into either the XPR003 guide only or XPRO23 all-in-one crispr lentiviral expression systems the protocol available on the Broad GPP website (www.broadinstitute.org/gpp/db/resources/protocols) was followed.
In order to generate viral vectors, HEK293T cells were seeded in 6 well plates at a density of 1.5E6 cells per well. Cells were then transfected with a mixture of TranslT@-LT1 Transfection Reagent (MirusBio #M1R2304), psPAX2, pMD2.G, lentiviral plasmid diluted in Opti-MEM™ (Thermo #31985062). The following day media was changed DMEM (Thermo #10566016) with 30% FBS (Sigma 18A079). 72 hrs after transfection, virus containing media was collected and run through a 0.2 uM filter to remove cellular debris. Virus was aliquoted and stored short term at −20 C until infection day. […]
Cell viability was assayed using a modified manufacturer's protocol for CellTiter-Glo® (Promega #G7573). […] Luminescence was measured with an integration time of 0.1 s using Envision Microplates Reader (PERKIN ELMER #2105-0010). […]

[4] = target: T1, protein tyrosine phosphatase-1B (PTP-1B) (Homo sapiens, UniProt P18031); settings: cited from earlier work
T1 sequence (P18031 1-435): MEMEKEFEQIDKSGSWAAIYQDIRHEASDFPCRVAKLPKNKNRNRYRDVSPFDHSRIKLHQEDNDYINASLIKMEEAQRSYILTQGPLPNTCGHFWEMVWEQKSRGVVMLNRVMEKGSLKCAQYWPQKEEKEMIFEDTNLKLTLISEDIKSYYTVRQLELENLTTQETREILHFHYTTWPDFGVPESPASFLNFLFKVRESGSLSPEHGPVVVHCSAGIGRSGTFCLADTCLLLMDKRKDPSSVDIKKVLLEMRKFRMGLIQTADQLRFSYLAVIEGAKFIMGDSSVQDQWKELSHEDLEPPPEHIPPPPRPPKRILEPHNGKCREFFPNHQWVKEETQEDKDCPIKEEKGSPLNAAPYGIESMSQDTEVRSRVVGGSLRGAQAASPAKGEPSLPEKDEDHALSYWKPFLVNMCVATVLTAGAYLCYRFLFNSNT

Structure (SMILES): CC(C)c1occc(=O)c1[O][V](=[O])[O]c1c(C(C)C)occc1=O [BIOV, bis(isopropylmaltolato)oxovanadium(IV)]
- prediction of cell line sensitivity by SLC26A2 expression [1]: high SLC26A2 transcriptional target gene expression predicted cell line sensitivity

Structure (SMILES): CCc1occc(=O)c1[O][V](=[O])[O]c1c(CC)occc1=O [BEOV, bis(ethylmaltolato)oxovanadium(IV)]
- prediction of cell line sensitivity by SLC26A2 expression [1]: high SLC26A2 transcriptional target gene expression predicted cell line sensitivity

Structure (SMILES): CCCCc1occc(=O)c1[O][V](=[O])[O]c1c(CCCC)occc1=O [BnBOV, bis(n-butylmaltolato)oxovanadium(IV)]
- prediction of cell line sensitivity by SLC26A2 expression [1]: high SLC26A2 transcriptional target gene expression predicted cell line sensitivity

Structure (SMILES): Cc1occc(=O)c1[O][V](=[O])[O]c1c(C)occc1=O [BMOV, bis(maltolato)oxovanadium(IV)]
- glycaemia and insulin levels [2]: restore normoglycaemia without rising insulin levels
- selective killing of cancer cell lines ([1]; SLC26A2-high versus lower SLC26A2 expression cell lines): selective killing of SLC26A2-high cancer cell lines; also recorded: selectively kills ovarian cancer cells, bone cancer cells, and melanoma cells
- prediction of cell line sensitivity by SLC26A2 expression [1]: high SLC26A2 transcriptional target gene expression predicted cell line sensitivity
- effect of SLC26A2 knockout on BMOV sensitivity (percent viability curves) [3]: SLC26A2 knockouts rescue BMOV sensitivity
- phosphatase inhibition [4]: potent phosphatase inhibitor
